Assay results from patent US20240190828A1, “Small Molecule Inhibitors of PBRM1-BD2” (The Medical College of Wisconsin, Inc., priority 2021, published 2024).
Several values for one entry are separate records, joined by “and”; a condition that tells them apart may be missing. Equal entries are not always repeated. Where two headings read alike, the source gives them in different places. Values belong to the compound of their own block, whether it stands above or below them.

Key:
[1] = target: T1, PBRM1-BD2 (Homo sapiens (Human), UniProt Q86U86); experiment: biochemical; type: binding
T1 sequence (Q86U86 177-287): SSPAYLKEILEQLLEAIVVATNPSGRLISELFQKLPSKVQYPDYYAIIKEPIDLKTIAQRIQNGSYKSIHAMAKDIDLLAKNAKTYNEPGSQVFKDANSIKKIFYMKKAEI
Protocol: DSF measures protein unfolding by monitoring the fluorescence of the SYPRO Orange dye as a function of temperature; positive thermal shifts indicate ligand binding induced stabilization of the protein.
(§1) Differential Scanning Fluorimetry (DSF). Bromodomain DSF Tm assays were performed using an Mx3005P (Stratagene) PCR detection system and low profile 96-well PCR plates (UltraFlux, Flat Top, SSI 3400-00S). […] The temperature was raised by 1° C./min from 25-95° C., and fluorescence readings were taken at each interval. Melting curves were analyzed using our online interactive fitting tool for thermofluor experiments (https://dsf-analysis.herokuapp.com/DSF-analysis) and plotted using GraphPad Prism.

[2] = Solubility at concentrations tested in the AlphaScreen assay
[3] = target: BRDT-BD1 (Homo sapiens (Human), UniProt Q58F21); experiment: DSF selectivity profiling; type: binding
Protocol: as §1

[4] = target: BRD4-BD2 (Homo sapiens (Human), UniProt O60885); experiment: DSF selectivity profiling; type: binding
Protocol: as §1

[5] = target: BRD4-BD1 (Homo sapiens (Human), UniProt O60885); experiment: DSF selectivity profiling; type: binding
Protocol: as §1

[6] = target: SMARCA2 (Homo sapiens (Human), UniProt P51531); experiment: DSF selectivity profiling; type: binding
SMARCA2, sequence (P51531 1378-1506): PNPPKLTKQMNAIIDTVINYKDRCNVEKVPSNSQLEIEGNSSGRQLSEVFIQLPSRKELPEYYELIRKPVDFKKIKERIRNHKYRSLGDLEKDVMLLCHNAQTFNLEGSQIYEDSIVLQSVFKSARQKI
Protocol: as §1

[7] = target: ASH1L (Homo sapiens (Human), UniProt Q9NR48); experiment: DSF selectivity profiling; type: binding
Protocol: as §1

[8] = target: BRD3-BD2 (Homo sapiens (Human), UniProt Q15059); experiment: DSF selectivity profiling; type: binding
BRD3-BD2, sequence (Q15059 306-415): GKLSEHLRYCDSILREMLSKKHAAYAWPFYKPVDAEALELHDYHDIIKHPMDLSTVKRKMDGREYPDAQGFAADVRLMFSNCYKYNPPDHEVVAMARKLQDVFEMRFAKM
Protocol: as §1

[9] = target: CREBBP (Homo sapiens (Human), UniProt Q92793); experiment: DSF selectivity profiling; type: binding
CREBBP, sequence (Q92793 1085-1192): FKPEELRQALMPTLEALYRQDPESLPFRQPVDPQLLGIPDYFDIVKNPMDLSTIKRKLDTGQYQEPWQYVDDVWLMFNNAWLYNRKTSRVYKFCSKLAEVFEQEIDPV
Protocol: as §1

[10] = target: CECR2 (Homo sapiens (Human), UniProt Q9BXF3); experiment: DSF selectivity profiling; type: binding
CECR2, sequence (Q9BXF3 434-538): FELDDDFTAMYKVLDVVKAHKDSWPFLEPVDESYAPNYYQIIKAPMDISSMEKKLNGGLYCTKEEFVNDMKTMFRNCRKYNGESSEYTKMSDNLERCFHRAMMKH
Protocol: as §1

[11] = target: BRD7 (Homo sapiens (Human), UniProt Q9NPI1); experiment: DSF selectivity profiling; type: binding
BRD7, sequence (Q9NPI1 131-235): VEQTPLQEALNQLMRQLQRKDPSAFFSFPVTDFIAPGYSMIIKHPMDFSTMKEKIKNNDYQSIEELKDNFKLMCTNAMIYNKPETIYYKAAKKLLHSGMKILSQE
Protocol: as §1

[12] = target: BRD3-BD1 (Homo sapiens (Human), UniProt Q15059); experiment: DSF selectivity profiling; type: binding
BRD3-BD1, sequence (Q15059 34-140): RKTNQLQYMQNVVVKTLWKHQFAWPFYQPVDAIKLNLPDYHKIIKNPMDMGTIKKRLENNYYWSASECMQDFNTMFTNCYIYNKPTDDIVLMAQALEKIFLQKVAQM
Protocol: as §1

[13] = target: TRIM33A (Homo sapiens (Human), UniProt Q9UPN9); experiment: DSF selectivity profiling; type: binding
TRIM33A, sequence (Q9UPN9 957-1080): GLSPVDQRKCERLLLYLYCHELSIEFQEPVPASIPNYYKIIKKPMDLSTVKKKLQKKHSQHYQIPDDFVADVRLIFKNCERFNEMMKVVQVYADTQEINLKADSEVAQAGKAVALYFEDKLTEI
Protocol: as §1

[14] = target: PCAF (Homo sapiens (Human), UniProt Q92831); experiment: DSF selectivity profiling; type: binding
PCAF, sequence (Q92831 723-827): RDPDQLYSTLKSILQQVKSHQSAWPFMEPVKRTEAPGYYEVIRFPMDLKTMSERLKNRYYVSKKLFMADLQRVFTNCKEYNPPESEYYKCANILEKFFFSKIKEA
Protocol: as §1

[15] = target: BRD2-BD2 (Homo sapiens (Human), UniProt P25440); experiment: DSF selectivity profiling; type: binding
BRD2-BD2, sequence (P25440 344-453): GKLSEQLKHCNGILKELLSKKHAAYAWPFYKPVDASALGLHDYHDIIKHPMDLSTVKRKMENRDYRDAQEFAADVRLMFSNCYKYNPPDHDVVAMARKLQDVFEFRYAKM
Protocol: as §1

[16] = target: p300 (Homo sapiens (Human), UniProt Q09472); experiment: DSF selectivity profiling; type: binding
p300, sequence (Q09472 1049-1156): as the sequence (Q92793 1085-1192) above, with N47S, V73I, F93Y, A98S counted along it
Protocol: as §1

[17] = target: T1, PBRM1-BD2; experiment: AlphaScreen competition assay, His6-tagged PBRM1-BD2 and biotinylated H3K14ac peptide; type: binding; conditions: 0.2 μM His6-PBRM1-BD2, 0.1 μM biotinylated H3K14ac peptide
[18] = target: PBRM1-BD5 (Homo sapiens (Human), UniProt Q86U86); conditions: DSF
PBRM1-BD5, sequence (Q86U86 653-763): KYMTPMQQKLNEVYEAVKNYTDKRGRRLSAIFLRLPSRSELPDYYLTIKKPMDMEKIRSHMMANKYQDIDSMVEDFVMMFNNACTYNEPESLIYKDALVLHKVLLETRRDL

[19] = target: SMARCA4 (Homo sapiens (Human), UniProt P51532); experiment: DSF selectivity profiling; type: binding
SMARCA4, sequence (P51532 1453-1564): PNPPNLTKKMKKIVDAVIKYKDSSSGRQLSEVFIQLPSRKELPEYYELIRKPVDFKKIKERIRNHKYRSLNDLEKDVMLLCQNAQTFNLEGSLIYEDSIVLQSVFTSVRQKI
Protocol: as §1

[20] = target: PBRM1-BD4 (Homo sapiens (Human), UniProt Q86U86); experiment: DSF selectivity profiling; type: binding
PBRM1-BD4, sequence (Q86U86 518-625): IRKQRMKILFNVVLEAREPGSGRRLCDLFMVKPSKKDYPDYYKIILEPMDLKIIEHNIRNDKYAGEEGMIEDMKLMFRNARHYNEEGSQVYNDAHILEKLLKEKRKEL
Protocol: as §1

[21] = target: PBRM1-BD6 (Homo sapiens (Human), UniProt Q86U86); experiment: DSF selectivity profiling; type: binding
PBRM1-BD6, sequence (Q86U86 769-879): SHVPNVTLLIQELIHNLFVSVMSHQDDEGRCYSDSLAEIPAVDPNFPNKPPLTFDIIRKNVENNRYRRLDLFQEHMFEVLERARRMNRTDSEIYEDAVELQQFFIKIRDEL
Protocol: as §1

[22] = target: PBRM1-BD1 (Homo sapiens (Human), UniProt Q86U86); experiment: DSF selectivity profiling; type: binding
PBRM1-BD1, sequence (Q86U86 41-151): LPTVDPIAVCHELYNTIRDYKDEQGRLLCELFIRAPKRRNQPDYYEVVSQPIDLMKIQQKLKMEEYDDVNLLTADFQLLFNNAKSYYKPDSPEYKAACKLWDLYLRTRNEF
Protocol: as §1

[23] = target: PBRM1-BD3 (Homo sapiens (Human), UniProt Q86U86); experiment: DSF selectivity profiling; type: binding
PBRM1-BD3, sequence (Q86U86 381-487): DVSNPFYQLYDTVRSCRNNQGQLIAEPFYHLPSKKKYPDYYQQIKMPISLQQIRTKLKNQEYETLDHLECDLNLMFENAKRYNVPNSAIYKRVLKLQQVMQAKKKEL
Protocol: as §1

[24] = test system: PC3 cells; experiment: Cell viability assay (CellTiter-Glo); type: cell-based, human; conditions: 10, 1 and 0.1 μM
Protocol: (§2) Cell Viability Assays. Cells were seeded in a 96-well plate and incubated for 12-24 h prior to initial treatment. The number of cells per well was chosen empirically based on cell growth rates (LNCaP-5,000 cells/well, PC3 and RWPE-1-3,000 cells per well, HEK293T-1,000 cells/well). Cells were treated with either DMSO control or serial dilutions of inhibitors and media with compound was refreshed every 48 h.

[25] = test system: RWPE-1 cells; experiment: Cell viability assay (CellTiter-Glo); type: cell-based, human; conditions: 10, 1 and 0.1 μM
Protocol: as §2

[26] = read-out: PBRM1-BD2 ΔTm, DSF, 10 μM protein, 100 μM inhibitor, vs apoprotein

ΔTm at 100 µM [1, 26]: 4.4 ± 0.4 °C
SMILES: O=C1NC(c2c(F)cccc2Cl)Nc2cccc(Cl)c21 (stereo not shown) [Compound 11, 5-Chloro-2-(2-chloro-6-fluorophenyl)-2,3-dihydroquinazolin-4(1H)-one]

solubility in the AlphaScreen assay [2]: solubility issues
SMILES: Cc1cc(C)c(C2NC(=O)c3c(Cl)cccc3N2)c(C)c1 (stereo not shown) [Compound 22, 5-Chloro-2-(2,4,6-trimethylphenyl)-2,3-dihydroquinazolin-4(1H)-one]

SMILES: Cc1cccc(C)c1C1NC(=O)c2c(Cl)cccc2N1 (stereo not shown) [Compound 26, 5-Chloro-2-(2,6-dimethylphenyl)-2,3-dihydroquinazolin-4(1H)-one]
BRDT-BD1 ΔTm [3]: −0.6 °C | BRD4-BD2 ΔTm [4]: −4.4 °C | BRD4-BD1 ΔTm [5]: 0 °C | SMARCA2 ΔTm [6]: 0.5 °C | ASH1L ΔTm [7]: −0.8 °C | BRD3-BD2 ΔTm [8]: 0.3 °C | CREBBP ΔTm [9]: 0.2 °C | CECR2 ΔTm [10]: 1.3 °C | BRD7 ΔTm [11]: 0.1 °C | BRD3-BD1 ΔTm [12]: 0.0 °C | TRIM33A ΔTm [13]: 0.5 °C | PCAF ΔTm [14]: 0.6 °C | BRD2-BD2 ΔTm [15]: 0.5 °C | p300 ΔTm [16]: 0.2 °C

SMILES: COc1cccc2c1C(=O)NC(c1ccccc1C)N2 (stereo not shown) [Compound 31, 5-Methoxy-2-(2-methylphenyl)-2,3-dihydroquinazolin-4(1H)-one]
IC50 [17]: > 70 µM | ΔTm at 100 µM [1, 26]: 0 °C

SMILES: Cc1cccc(C2NC(=O)c3c(Br)cccc3N2)c1 (stereo not shown) [Compound 34, 5-Bromo-2-(3-methylphenyl)-2,3-dihydroquinazolin-4(1H)-one]
PBRM1-BD5 ΔTm [18]: ~1.5 °C | BRDT-BD1 ΔTm [3]: −0.4 °C | BRD4-BD2 ΔTm [4]: −1.1 °C | BRD4-BD1 ΔTm [5]: 0.3 °C | SMARCA4 ΔTm [19]: −0.2 °C | SMARCA2 ΔTm [6]: 0.3 °C | ASH1L ΔTm [7]: −0.4 °C | BRD3-BD2 ΔTm [8]: 0.5 °C | CREBBP ΔTm [9]: −0.2 °C | PBRM1-BD4 ΔTm [20]: 0.2 °C | CECR2 ΔTm [10]: −0.6 °C | PBRM1-BD6 ΔTm [21]: −2.4 °C | BRD7 ΔTm [11]: −0.4 °C | PBRM1-BD1 ΔTm [22]: 1.4 °C | PBRM1-BD3 ΔTm [23]: 0.6 °C | BRD3-BD1 ΔTm [12]: 0.4 °C | TRIM33A ΔTm [13]: 0.1 °C | PCAF ΔTm [14]: 0.6 °C | BRD2-BD2 ΔTm [15]: 0.5 °C | p300 ΔTm [16]: −0.1 °C | PBRM1-BD2 ΔTm ([1]; DSF, 10 μM protein, 100 μM inhibitor, vs apoprotein): 6.4 °C and 6.4 ± 0.2 °C | ΔTm at 100 µM [1, 26]: > 6.2 °C | growth inhibition of PC3 cells [24]: do not inhibit the growth of PC3 and RWPE1 at tested concentrations | growth inhibition of RWPE1 cells [25]: do not inhibit the growth of PC3 and RWPE1 at tested concentrations

SMILES: O=C(O)c1ccccc1Nc1cc(Cl)ccc1C(=O)O [Compound 37, 2-((2-Carboxyphenyl)amino)-4-chlorobenzoic acid]
IC50 [17]: > 250 µM | ΔTm at 100 µM ([1]; read-out: PBRM1-BD2 ΔTm): 0.3 ± 0.02 °C

SMILES: O=C(O)c1ccc(Cl)c2c(=O)c3ccccc3[nH]c12 [Compound 38, 1-Chloro-9-oxo-9,10-dihydroacridine-4-carboxylic acid]
IC50 [17]: > 250 µM | ΔTm at 100 µM [1, 26]: 0 °C
